Test results from article PMC8229396, “Myeloperoxidase Inhibitory and Antioxidant Activities of (E)-2-Hydroxy-α-aminocinnamic Acids Obtained through Microwave-Assisted Synthesis” (Pharmaceuticals, 2021).

Experiments:
Assay type in all cases: biochemical
Myeloperoxidase (MPO) [1] = target: T1, Myeloperoxidase (MPO) (Homo sapiens, UniProt P05164); test: MPO peroxidation assay (o-dianisidine/H2O2), dose-response
Myeloperoxidase (MPO) [2] = target: T1, Myeloperoxidase (MPO); test: MPO peroxidation assay (o-dianisidine/H2O2), single concentration […]
Myeloperoxidase (MPO) [3] = target: T1, Myeloperoxidase (MPO); test: MPO peroxidation assay ([…] at […]) and taurine-chloramine chlorination assay ([…] at […])

T1 sequence (P05164 165-273): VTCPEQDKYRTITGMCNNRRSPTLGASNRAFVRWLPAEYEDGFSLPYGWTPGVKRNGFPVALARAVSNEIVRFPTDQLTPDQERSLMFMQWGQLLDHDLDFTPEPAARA
T1 sequence (P05164 279-745): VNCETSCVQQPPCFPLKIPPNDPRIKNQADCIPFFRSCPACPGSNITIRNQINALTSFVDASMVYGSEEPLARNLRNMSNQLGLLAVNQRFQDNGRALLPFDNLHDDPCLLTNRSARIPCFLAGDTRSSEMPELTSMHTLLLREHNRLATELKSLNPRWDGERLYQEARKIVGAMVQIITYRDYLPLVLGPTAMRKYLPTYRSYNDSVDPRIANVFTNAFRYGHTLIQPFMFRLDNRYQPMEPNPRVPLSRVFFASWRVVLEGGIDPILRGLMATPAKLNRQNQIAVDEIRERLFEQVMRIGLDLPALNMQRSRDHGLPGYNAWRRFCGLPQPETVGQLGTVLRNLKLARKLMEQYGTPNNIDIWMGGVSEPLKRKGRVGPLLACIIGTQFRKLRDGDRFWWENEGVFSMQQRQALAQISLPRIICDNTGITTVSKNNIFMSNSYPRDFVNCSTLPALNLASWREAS

SMILES	IC50 (Myeloperoxidase (MPO) [1]) [µM]	further results
N/C(=C/c1ccccc1O)C(=O)O [2a, (E)-(2-hydroxy)-α-aminocinnamic acid]	45 ± 4	–
N/C(=C/c1cc(Br)ccc1O)C(=O)O [2b, (E)-(5-Bromo-2-hydroxy)-α-aminocinnamic acid]	–	inhibition at 100 µM (Myeloperoxidase (MPO) [2]): 48.4 ± 4.1%
N/C(=C/c1cc(Cl)ccc1O)C(=O)O [2c, (E)-(5-Chloro-2-hydroxy)-α-aminocinnamic acid]	–	inhibition at 100 µM (Myeloperoxidase (MPO) [3]): 40.5 ± 4.4%
CCOc1cccc(/C=C(/N)C(=O)O)c1O [2e, (E)-(3-Ethoxy-2-hydroxy)-α-aminocinnamic acid]	43 ± 4	–
N/C(=C/c1ccc(O)cc1O)C(=O)O [2f, (E)-(2,4-dihydroxy)-α-aminocinnamic acid]	30 ± 5	–
N/C(=C/c1cc(O)ccc1O)C(=O)O [2h, (E)-(2,5-dihydroxy)-α-aminocinnamic acid]	26 ± 2	–
Nc1ccc(O)c(C(=O)O)c1 [5-ASA, 5-aminosalicylic acid, reference compound]	39 ± 2	–
COc1ccc2c(c1)c(CC(=O)O)c(C)n2C(=O)c1ccc(Cl)cc1 [indomethacin, reference compound]	29 ± 2	–
